In patent US12509447B2, “Small molecule compound” (Technoderma Medicines Pte Ltd, priority 2019, dated 2025):

How the values were obtained:
Type in all cases: biochemical
[1] = biological target: T1, JAK3 (Homo sapiens, UniProt P52333); assay: Inhibition of JAK kinase activity, EZ Reader microfluidic phosphorylation of peptide substrate: JAK3; conditions: JAK3 kinase 1 nM; highest final concentration 10 μM, 1:3 serial dilution, 8 points, duplicates
T1 sequence (P52333 1-1124): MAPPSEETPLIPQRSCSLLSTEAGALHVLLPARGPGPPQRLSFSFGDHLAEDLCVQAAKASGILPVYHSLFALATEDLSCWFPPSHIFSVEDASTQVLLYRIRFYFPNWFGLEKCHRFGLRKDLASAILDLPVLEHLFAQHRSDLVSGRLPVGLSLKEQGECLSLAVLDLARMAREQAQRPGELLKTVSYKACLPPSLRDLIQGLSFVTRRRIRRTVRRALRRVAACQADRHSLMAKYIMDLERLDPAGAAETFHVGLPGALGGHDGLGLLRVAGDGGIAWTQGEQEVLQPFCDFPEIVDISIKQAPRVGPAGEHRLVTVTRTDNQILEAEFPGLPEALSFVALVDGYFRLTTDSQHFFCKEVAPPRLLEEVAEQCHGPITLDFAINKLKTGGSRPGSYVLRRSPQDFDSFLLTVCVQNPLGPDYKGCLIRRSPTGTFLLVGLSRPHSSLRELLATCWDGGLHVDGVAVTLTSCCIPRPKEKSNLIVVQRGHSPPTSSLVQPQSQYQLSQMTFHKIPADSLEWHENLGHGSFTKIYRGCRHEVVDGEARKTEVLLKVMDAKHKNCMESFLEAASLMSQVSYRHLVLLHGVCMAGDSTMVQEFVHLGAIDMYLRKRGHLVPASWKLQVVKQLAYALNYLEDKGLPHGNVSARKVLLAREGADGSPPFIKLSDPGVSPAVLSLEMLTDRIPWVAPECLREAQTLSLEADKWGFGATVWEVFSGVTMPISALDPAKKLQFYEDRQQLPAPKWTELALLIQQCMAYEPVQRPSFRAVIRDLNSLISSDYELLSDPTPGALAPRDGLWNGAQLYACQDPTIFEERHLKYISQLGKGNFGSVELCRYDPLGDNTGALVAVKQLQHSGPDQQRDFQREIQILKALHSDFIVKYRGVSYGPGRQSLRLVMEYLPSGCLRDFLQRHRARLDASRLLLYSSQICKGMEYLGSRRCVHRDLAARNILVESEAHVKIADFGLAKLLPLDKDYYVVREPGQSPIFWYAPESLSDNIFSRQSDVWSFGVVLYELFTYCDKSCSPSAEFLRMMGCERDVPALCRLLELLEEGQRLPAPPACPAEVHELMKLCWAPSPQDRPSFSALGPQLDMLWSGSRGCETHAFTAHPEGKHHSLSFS
Excerpt: (§1) EZ Reader available from PerkinElmer can be used for detecting the phosphorylation of polypeptide substrates catalyzed by kinases. This device is based on microfluidic separation technology, and can directly detect fluorescence labeled substrates and products. The separation step is achieved in a microfluidic chip by controlling the pressure and electric field intensity. In a kinase experiment, the product conversion rate is generally controlled at 20-30%. This biological assay method is used for identifying the inhibitory effect of the compounds on JAK.
(§2) The compound powder was dissolved in DMSO, sealed and stored in a refrigerator at −20° C. The in-house compound Ref1 was used as a positive control for testing of JAK1, JAK2 and Tyk2, and Ref2 was used as a positive control for testing of JAK3.
(§3) • S2.1. 1M HEPES buffer: 0.5M HEPES free acid and 0.5M HEPES sodium salt are weighed, added into ultrapure water for dissolution, brought to a desired volume, filtered and stored in a refrigerator at 4° C. • S2.2. 40 mM ATP solution: dissolved in a 50 mM HEPES buffer solution, prepared into 40 mM, aliquoted, and cryopreserved in a refrigerator at −20° C. • S2.3. 0.5% Tween 20: 100% Tween 20 was diluted with ultrapure water, and stored in a refrigerator at 4° C. • S2.4. 35% bovine serum albumin: a 35% bovine serum albumin solution is prepared in ultrapure water, aliquoted, and stored in a refrigerator at −20° C. • S2.5. 1M dithiothreitol solution: dithiothreitol is formulated into a 1M solution with ultrapure water, aliquoted, and stored in a refrigerator at −20° C. • S2.6. 0.5 mM Jaktide Peptide substrate solution: it is dissolved in 50 mM HEPES to 0.5 mM, aliquoted, and stored in a refrigerator at −20° C. • S2.7. 0.5 mM IRStide Peptide substrate solution: it is dissolved in 50 mM HEPES to 0.5 mM, aliquoted, and stored in a refrigerator at −20° C. • S2.8. Assay Buffer: 20 mM HEPES buffer, pH 7.4, 10 mM magnesium chloride, 0.01% bovine serum albumin BSA, 0.0005% Tween-20, and a 1 mM dithiothreitol solution. • S2.9. Stop Buffer: 180 mM HEPES buffer, 20 mM ethylenediamine tetraacetic acid (EDTA), and 0.2% Coating Reagent 3. • S2.10. Separation Buffer: 100 mM HEPES buffer, 10 mM EDTA, 0.0005% Tween 20, 0.1% Coating Reagent 3, and 1% dimethyl sulfoxide. 3. Experimental Procedures • S3.1. Preparation of compound plate
(§4) The compound is dissolved in dimethyl sulfoxide to 10 mM, a certain volume is taken and diluted to 0.6 mM, 10 μl of the diluted 0.6 mM solution is taken and added into a 384 microplate or 1:3 serial dilution, with a total of 8 concentration points. • S3.2. Compound layout
(§5) • positive control (HPE1): Ref1, final concentration: 10 μM • positive control (HPE1): Ref2, final concentration: 10 μM • negative control (ZPE): DMSO, with a final concentration of 1.6% • Compound: the highest final concentration at 10 μM, 1:3 serial dilution, with 8 concentration points and in duplicates. 4. Experimental operation steps • S4.1. the experimental plate was added with 250 nl of the compound per well with ECHO, and centrifuged at 1,000 rpm for 1 minute; • S4.2. the precipitate was added with 5 μl of the experimental buffer, and shaken for several seconds to fully dissolve the compound; • S4.3. the solution was added with 5 μl of a 3× substrate solution, as well as 5 μl of a 3× kinase solution, and centrifuged at 800 rpm for 1 minute; • S4.4. The final concentrations of JAK1, JAK2, JAK3 and Tyk2 kinases in the reaction system are 20, 1, 1 and 1 nM, respectively. • S4.5. the reaction system is incubated at room temperature, wherein the incubation time of each kinase is different, and there are differences in incubation time of different batches of kinases. • S4.6. When the reaction reaches 20%-30%, the reaction system is added with 15 μl of the stop buffer to terminate the reaction, and centrifuged at 1,000 rpm for 2 minutes. • S4.7. The precipitate was placed onto a EZ Reader for plate reading. • S4.8. […]

[2] = biological target: JAK1 (Homo sapiens, UniProt P23458); assay: Inhibition of JAK kinase activity, EZ Reader microfluidic phosphorylation of peptide substrate: JAK1; conditions: JAK1 kinase 20 nM; highest final concentration 10 μM, 1:3 serial dilution, 8 points, duplicates
Excerpt: as §1, §2, §3, §4, §5

[3] = biological target: Tyk2 (Homo sapiens, UniProt P29597); assay: Inhibition of JAK kinase activity, EZ Reader microfluidic phosphorylation of peptide substrate: Tyk2; conditions: Tyk2 kinase 1 nM; highest final concentration 10 μM, 1:3 serial dilution, 8 points, duplicates
Excerpt: as §1, §2, §3, §4, §5

[4] = biological target: JAK2 (Homo sapiens, UniProt O60674); assay: Inhibition of JAK kinase activity, EZ Reader microfluidic phosphorylation of peptide substrate: JAK2; conditions: JAK2 kinase 1 nM; highest final concentration 10 μM, 1:3 serial dilution, 8 points, duplicates
Excerpt: as §1, §2, §3, §4, §5

Sequence of JAK2 (O60674 whole entry): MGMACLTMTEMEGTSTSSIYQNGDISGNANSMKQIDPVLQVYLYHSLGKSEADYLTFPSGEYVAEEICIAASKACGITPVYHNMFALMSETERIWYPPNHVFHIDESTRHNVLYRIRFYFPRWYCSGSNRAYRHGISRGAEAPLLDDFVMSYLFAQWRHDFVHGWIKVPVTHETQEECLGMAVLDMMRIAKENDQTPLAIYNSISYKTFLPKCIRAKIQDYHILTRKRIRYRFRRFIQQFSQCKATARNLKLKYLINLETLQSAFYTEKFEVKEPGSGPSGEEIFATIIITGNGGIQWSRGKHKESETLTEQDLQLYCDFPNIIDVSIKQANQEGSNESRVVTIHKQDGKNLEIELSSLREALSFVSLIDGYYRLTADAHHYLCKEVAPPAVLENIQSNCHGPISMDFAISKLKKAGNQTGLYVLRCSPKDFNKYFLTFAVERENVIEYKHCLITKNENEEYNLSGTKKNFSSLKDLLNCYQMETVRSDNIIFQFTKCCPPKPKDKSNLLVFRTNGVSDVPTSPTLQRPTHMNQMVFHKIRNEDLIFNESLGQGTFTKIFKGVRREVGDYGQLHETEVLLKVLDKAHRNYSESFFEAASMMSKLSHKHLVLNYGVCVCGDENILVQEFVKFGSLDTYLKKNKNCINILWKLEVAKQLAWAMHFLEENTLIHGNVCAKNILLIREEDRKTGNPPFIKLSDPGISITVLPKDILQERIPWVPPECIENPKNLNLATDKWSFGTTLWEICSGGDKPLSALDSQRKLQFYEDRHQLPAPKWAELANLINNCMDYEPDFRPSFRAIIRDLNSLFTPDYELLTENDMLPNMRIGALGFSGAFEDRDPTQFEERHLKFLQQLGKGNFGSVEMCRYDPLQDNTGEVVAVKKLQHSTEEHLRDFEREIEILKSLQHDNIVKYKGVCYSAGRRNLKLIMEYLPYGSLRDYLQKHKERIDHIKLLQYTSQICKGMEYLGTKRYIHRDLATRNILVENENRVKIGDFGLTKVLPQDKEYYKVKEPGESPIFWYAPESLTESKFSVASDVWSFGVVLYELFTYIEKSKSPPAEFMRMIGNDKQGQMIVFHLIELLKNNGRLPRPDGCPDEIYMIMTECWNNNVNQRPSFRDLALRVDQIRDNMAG
Sequence of JAK1 (P23458 whole entry): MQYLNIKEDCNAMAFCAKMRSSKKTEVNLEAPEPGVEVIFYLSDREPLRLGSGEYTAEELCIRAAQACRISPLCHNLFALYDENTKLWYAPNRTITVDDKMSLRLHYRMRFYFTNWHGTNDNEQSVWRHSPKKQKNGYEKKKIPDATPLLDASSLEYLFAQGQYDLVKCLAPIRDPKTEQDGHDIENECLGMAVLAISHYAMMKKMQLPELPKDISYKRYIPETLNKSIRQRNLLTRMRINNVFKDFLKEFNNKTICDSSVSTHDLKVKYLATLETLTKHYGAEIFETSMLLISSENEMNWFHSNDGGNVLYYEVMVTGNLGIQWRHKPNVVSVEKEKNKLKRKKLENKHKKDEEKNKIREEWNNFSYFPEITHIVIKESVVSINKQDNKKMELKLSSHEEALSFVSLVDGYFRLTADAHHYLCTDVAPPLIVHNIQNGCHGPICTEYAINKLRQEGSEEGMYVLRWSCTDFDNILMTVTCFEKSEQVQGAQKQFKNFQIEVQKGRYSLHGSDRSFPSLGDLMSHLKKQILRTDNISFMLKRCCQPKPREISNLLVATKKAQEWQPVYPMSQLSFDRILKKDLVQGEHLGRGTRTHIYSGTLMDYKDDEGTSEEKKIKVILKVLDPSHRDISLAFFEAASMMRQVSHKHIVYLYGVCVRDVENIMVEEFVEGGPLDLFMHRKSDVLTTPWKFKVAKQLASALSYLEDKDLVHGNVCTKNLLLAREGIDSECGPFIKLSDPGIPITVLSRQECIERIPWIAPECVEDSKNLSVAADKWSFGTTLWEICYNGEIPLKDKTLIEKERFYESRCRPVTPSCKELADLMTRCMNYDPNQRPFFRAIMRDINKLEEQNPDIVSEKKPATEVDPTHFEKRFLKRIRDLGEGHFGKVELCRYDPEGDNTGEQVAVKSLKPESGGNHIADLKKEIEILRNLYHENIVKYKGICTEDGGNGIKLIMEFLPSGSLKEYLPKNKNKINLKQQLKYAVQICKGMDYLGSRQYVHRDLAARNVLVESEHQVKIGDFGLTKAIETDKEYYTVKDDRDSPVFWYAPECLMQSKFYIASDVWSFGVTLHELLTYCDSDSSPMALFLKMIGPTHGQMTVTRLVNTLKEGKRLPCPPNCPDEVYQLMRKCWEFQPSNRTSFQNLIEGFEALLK
Sequence of Tyk2 (P29597 whole entry): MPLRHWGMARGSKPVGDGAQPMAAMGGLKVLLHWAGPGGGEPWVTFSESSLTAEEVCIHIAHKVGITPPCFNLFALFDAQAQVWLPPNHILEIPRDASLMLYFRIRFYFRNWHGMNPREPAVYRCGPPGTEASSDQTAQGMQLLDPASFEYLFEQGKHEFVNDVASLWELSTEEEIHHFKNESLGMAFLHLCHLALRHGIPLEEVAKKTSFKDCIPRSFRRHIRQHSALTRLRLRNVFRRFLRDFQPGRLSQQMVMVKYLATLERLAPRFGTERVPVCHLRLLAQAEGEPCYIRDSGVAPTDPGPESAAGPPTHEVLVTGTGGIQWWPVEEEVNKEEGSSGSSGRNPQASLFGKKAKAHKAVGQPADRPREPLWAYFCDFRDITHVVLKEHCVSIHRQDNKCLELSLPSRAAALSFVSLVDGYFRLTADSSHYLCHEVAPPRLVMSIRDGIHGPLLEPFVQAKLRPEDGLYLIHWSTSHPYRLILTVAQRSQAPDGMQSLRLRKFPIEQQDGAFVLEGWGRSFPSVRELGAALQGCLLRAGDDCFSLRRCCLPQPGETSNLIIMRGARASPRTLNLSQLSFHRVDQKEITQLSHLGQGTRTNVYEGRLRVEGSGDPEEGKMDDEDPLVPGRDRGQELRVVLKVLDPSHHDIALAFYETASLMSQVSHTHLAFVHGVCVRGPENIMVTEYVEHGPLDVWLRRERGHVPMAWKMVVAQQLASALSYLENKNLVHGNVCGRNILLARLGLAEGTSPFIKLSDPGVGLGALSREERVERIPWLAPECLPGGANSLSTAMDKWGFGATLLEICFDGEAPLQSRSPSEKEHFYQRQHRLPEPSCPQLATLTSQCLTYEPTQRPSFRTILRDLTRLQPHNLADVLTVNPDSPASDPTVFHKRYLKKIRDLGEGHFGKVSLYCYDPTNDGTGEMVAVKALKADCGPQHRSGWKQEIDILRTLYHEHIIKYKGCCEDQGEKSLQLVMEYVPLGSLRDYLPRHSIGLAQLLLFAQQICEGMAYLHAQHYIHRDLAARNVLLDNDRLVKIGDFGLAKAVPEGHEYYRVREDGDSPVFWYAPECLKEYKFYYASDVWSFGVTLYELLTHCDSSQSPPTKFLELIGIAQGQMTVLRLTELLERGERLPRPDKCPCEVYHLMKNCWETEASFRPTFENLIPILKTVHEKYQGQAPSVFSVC

IC50 [1] [µM]	IC50 [2] [µM]	IC50 [3] [µM]	IC50 [4] [µM]	SMILES
1 to 10	≥ 10	≥ 10	1 to 10	CCS(=O)(=O)N1CCC(n2cc(-c3ccnc(Nc4cnn(C)c4)n3)cn2)C1 (stereo not drawn) [TDM-180647, 4-(1-(1-(ethylsulfonyl)pyrrolidine-3-yl)-1H-pyrazol-4-yl)-N-(1-methyl-1H-pyrazol-4-yl)pyrimidin-2-amine]
1 to 10	1 to 10	1 to 10	1 to 10	CCCS(=O)(=O)N1CCC(n2cc(-c3ccnc(Nc4cnn(C)c4)n3)cn2)C1 (stereo not drawn) [TDM-180648, N-(1-methyl-1H-pyrazol-4-yl)-4-(1-(1-(propylsulfonyl)pyrrolidine-3-yl)-1H-pyrazol-4-yl)pyrimidin-2-amine]
≥ 10	≥ 10	≥ 10	≥ 10	CCC(=O)N1CCC(n2cc(-c3ccnc(Nc4cnn(C)c4)n3)cn2)C1 (stereo not drawn) [TDM-180649, 1-(3-(4-(2-((1-methyl-1H-pyrazol-4-yl)amino)pyrimidin-4-yl)-1H-pyrazol-1-yl)pyrrolidin-1-yl)propan-1-one]
≥ 10	≥ 10	≥ 10	≥ 10	CCCC(=O)N1CCC(n2cc(-c3ccnc(Nc4cnn(C)c4)n3)cn2)C1 (stereo not drawn) [TDM-180650, 1-(3-(4-(2-((1-methyl-1H-pyrazol-4-yl)amino)pyrimidin-4-y1)-1H-pyrazol-1-yl)pyrrolidin-1-yl)butan-1-one]
≥ 10	≥ 10	≥ 10	1 to 10	Cn1cc(Nc2nccc(-c3cnn(C4CCN(C(=O)CC(F)(F)F)C4)c3)n2)cn1 (stereo not drawn) [TDM-180651, 3,3,3-trifluoro-1-(3-(4-(2-((1-methyl-1H-pyrazol-4-yl)amino)pyrimidin-4-yl)-1H-pyrazol-1-yl)pyrrolidine-yl)propan-1-one]
≥ 10	≥ 10	≥ 10	≥ 10	Cn1cc(Nc2nccc(-c3cnn(C4CCN(C(=O)C5CC5)C4)c3)n2)cn1 (stereo not drawn) [TDM-180652, cyclopropyl(3-(4-(2-((1-methyl-1H-pyrazol-4-yl)amino)pyrimidin-4-yl)-1H-pyrazol-1-yl)pyrrolidin-1-yl)ketone]
≥ 10	≥ 10	1 to 10	1 to 10	Cn1cc(Nc2nccc(-c3cnn(C4CCN(C(=O)CC#N)C4)c3)n2)cn1 (stereo not drawn) [TDM-180653, 3-(3-(4-(2-((1-methyl-1H-pyrazol-4-yl)amino)pyrimidin-4-yl)-1H-pyrazol-1-yl)pyrrolidin-1-yl)-3-oxopropanenitrile]
≥ 10	≥ 10	1 to 10	1 to 10	Cn1cc(Nc2nccc(-c3cnn(C4CCN(C(=O)C5CC5(F)F)C4)c3)n2)cn1 (stereo not drawn) [TDM-180654, (2,2-difluorocyclopropyl)(3-(4-(2-((1-methyl-1H-pyrazol-4-yl)amino)pyrimidin-4-yl)-1H-pyrazol-1-yl)pyrrolidin-1-yl)ketone]
≥ 10	1 to 10	1 to 10	1 to 10	CCS(=O)(=O)N1CC(n2cc(-c3ccnc(Nc4cnn(C)c4)n3)cn2)C1 [TDM-180665, 4-(1-(1-(ethylsulfonyl)azetidin-3-yl)-1H-pyrazol-4-yl)-N-(1-methyl-1H-pyrazol-4-yl)pyrimidin-2-amine]
≥ 10	≥ 10	≥ 10	1 to 10	CCCS(=O)(=O)N1CC(n2cc(-c3ccnc(Nc4cnn(C)c4)n3)cn2)C1 [TDM-180666, N-(1-methyl-1H-pyrazol-4-yl)-4-(1-(1-(propylsulfonyl)azetidin-3-yl)-1H-pyrazol-4-yl)pyrimidin-2-amine]
≥ 10	≥ 10	≥ 10	≥ 10	Cn1cc(Nc2nccc(-c3cnn(C4CN(C(=O)C5CC5)C4)c3)n2)cn1 [TDM-180667, cyclopropyl(3-(4-(2-((1-methyl-1H-pyrazol-4-yl)amino)pyrimidin-4-yl)-1H-pyrazol-1-yl)azetidin-1-yl)ketone]
≥ 10	≥ 10	≥ 10	≥ 10	Cn1cc(Nc2nccc(-c3cnn(C4CN(C(=O)C5CC5(F)F)C4)c3)n2)cn1 (stereo not drawn) [TDM-180668, (2,2-difluorocyclopropyl)(3-(4-(2-((1-methyl-1H-pyrazol-4-yl)amino)pyrimidin-4-yl)-1H-pyrazol-1-yl)azetidin-1-yl)ketone]
≥ 10	≥ 10	≥ 10	≥ 10	Cn1cc(Nc2nccc(-c3cnn(C4CN(C(=O)CC(F)(F)F)C4)c3)n2)cn1 [TDM-180669, 3,3,3-trifluoro-1-(3-(4-(2-((1-methyl-1H-pyrazol-4-yl)amino)pyrimidin-4-yl)-1H-pyrazol-1-yl)azetidin-yl)propan-1-one]
≥ 10	≥ 10	≥ 10	≥ 10	CCCC(=O)N1CC(n2cc(-c3ccnc(Nc4cnn(C)c4)n3)cn2)C1 [TDM-180670]
≥ 10	≥ 10	≥ 10	≥ 10	Cn1cc(Nc2nccc(-c3cnn(C4CN(C(=O)CC#N)C4)c3)n2)cn1 [TDM-180671, 3-(3-(4-(2-((1-methyl-1H-pyrazol-4-yl)amino)pyrimidin-4-yl)-1H-pyrazol-1-yl)azetidin-1-yl)-3-oxopropanenitrile]
